Data set [1] deals with LDL. The experiment in a line: Oxidative degeneration LDL assay using azo-compound (V-70). As to conditions: for anti-oxidative activity on LDL (lag-time): added to LDL concentration-dependently, final concentration 60-1000 ng; for lag-time (time during which conjugate diene production was inhibited): final concentration 1 μg, LDL from eight male and female adults, V-70 200 μM, about 70 μg/mL LDL protein, control 88.1±29.4 minutes. The class given is biochemical, human. The protocol: Blood collected from human subject was centrifuged at 3000 rpm for 10 minutes to isolate plasma. Next, KBr was added to 1.1 mL of the plasma which was then subjected to density gradient ultra-centrifugation (Single spin differential centrifugation) to collect LDL. After the determination of protein concentration, LDL was prepared by PBS.
In vitro assay of oxidatively denatured LDL was performed according to the method described by Kondo, et al. This method involves use of 2,2′-azobis([…]-2,4-dimethylvaleronitrile; V-70) as the oxidation starter. Final concentration of V-70 was 200 μM for about 70 μg/mL of LDL protein concentration, and production of the conjugate dienes of LDL was assayed at 234 nm for 300 minutes. The time during which conjugate diene production was inhibited was indicated as lag-time. The efficacy of each antioxidants was evaluated by adding the compound and V-70 at the same time and determining the lag-time caused by the compound.

For data set [2] the following is noted: 500IU RRR-α-tocopherol administered to human subject; cited from earlier work.

Molecules are shown by their SMILES.

`Cc1c(C)c2c(c(C)c1O)CCC(C)(CCC(=O)O)O2` (stereo not drawn) [α-CEHC, 2,5,7,8-Tetramethyl-2-(β-carboxyethyl)-6-hydroxychromane]: in data set [1], the “anti-oxidative activity on LDL (lag-time)” value is given as “prolonged lag-times concentration-dependently” and the “lag-time (time during which conjugate diene production was inhibited)” value was 190.8 ± 65.1 min.
In the case of `Cc1c(C)c2c(c(C)c1O)CC[C@@](C)(CCC[C@H](C)CCC[C@H](C)CCCC(C)C)O2` [RRR-α-tocopherol], the “plasma α-CEHC concentration” value in data set [2] is listed as 200 pmol/mL.
Regarding `Cc1c(O)cc2c(c1C)OC(C)(CCC(=O)O)CC2` (stereo not drawn) [γ-CEHC, 2,7,8-trimethyl-2-(β-carboxyethyl)-6-hydroxychromane], in data set [1], the “anti-oxidative activity on LDL (lag-time)” value was “prolonged lag-times concentration-dependently” and the “lag-time (time during which conjugate diene production was inhibited)” value stood at 263.1 ± 114.8 min. The “extension rate of lag-time (control = 1), FIG. 1” value in data set [1] (final concentration 60 ng, close to 200 pmol/mL (lower concentration)) is “greater increase in extension rate of lag-time than those of α-CEHC and Trolox groups”. In addition, the “anti-oxidative effects on LDL, comparison between compounds” value in data set [1] (final concentration 1 μg (higher concentration)) is “significantly stronger anti-oxidative effects on LDL than α-CEHC did”.

These data come from patent publication US20020040053A1, “Antioxidant containing vitamin E metabolite” (priority 2000, published 2002).
